The source of these data is PMC8071534, “Discovery of Potential, Dual-Active Histamine H3 Receptor Ligands with Combined Antioxidant Properties” (Molecules, 2021).

Usually pKi stands for the negative decadic logarithm of the Ki, by convention in mol/L. Broadly, the pKd is −log10 of the Kd, conventionally taken in molar units. As usually defined, the pIC50 is the negative decadic logarithm of the IC50, by convention in mol/L. As a reminder, the Ki is a measure of affinity in units of concentration, obtained from inhibition or displacement. In general, melting point refers to the temperature, or range, at which the solid turns liquid.

Structures are written as SMILES. pIC50, pKd, pKi: −log10 of the molar value. Values joined by “and” are separate entries in the source; they are usually repeats but may differ in a detail not shown here. Equal entries are not always repeated. Where two headings read alike, the source gives them in different places.

The target in one data set is hH3R. The settings on record: reference ligands, Figure 1; cited from earlier work.
Data set [1] concerns the target T1, human recombinant histamine H3R stably expressed in HEK-293 cells (Homo sapiens, UniProt Q9Y5N1).
T1 construct: HEK-293 cells stably expressing the recombinant full length hH3R; expressed in transfected cells; crude membrane preparations
Set-up: method as in PMID 21237145, PMID 29960729. The settings on record: radioligand of the binding assay; read-out: KD of the radioligand at hH3R; cited from earlier work.

The target in the next data set is hσ1R. The settings on record: Figure 1; cited from earlier work.
The subject of a further data set is hBuChE. The conditions noted are these: Figure 1; cited from earlier work.
For a further data set, the target named is rVAChT. The conditions noted are these: Figure 1; cited from earlier work.
Another data set concerns the target rσ2R. The conditions noted are these: Figure 1; cited from earlier work.
Data set [2] in a line: DPPH free radical scavenging assay. The settings on record: for DPPH Assay (λ = 517 nm) Absorbance Decrease in 10^−4 mol/L Concentration [%] Mean ± SEM: 30 min incubation, vs solvent + reaction mixture blank. Here is the method: (§1) In order to determine the possible antioxidant properties, selected compounds were tested in 2,2-diphenyl-1-picrylhydrazyl (DPPH) and ferric reducing antioxidant power (FRAP) assay with ascorbic acid as a reference compound (Table 2). For details, please refer to the Materials and Methods Section. Graphical representation of tests results can be found in Supplementary Material.
(§2) Antioxidant properties of compounds were tested in vitro in two different assays: the 2,2-diphenyl-1-picrylhydrazyl (DPPH) assay and the FeCl3 reduction activity assay (FRAP, ferric reducing antioxidant power). The tested compounds and ascorbic acid were dissolved in DMSO at the 10^−2 mol/L concentration, and in ethanol at the concentration of 10^−4 mol/L respectively. Moreover, 30% and 50% ascorbic acid activity cut-off for DPPH and FRAP assays respectively were set ad hoc.
DPPH is a molecule containing a stable free radical. The reduction of DPPH (purple) in ethanol solution takes place in the presence of a hydrogen-donating antioxidant due to the formation of the non-radical form of DPPH-H (yellow). This transformation results in color change from purple to yellow, which can be measured spectrophotometrically. Thus, the decrease in absorbance is proportional to the decrease in concentration of DPPH (free radical) and discoloration of reaction mixture indicates the scavenging of free radicals by a tested antioxidant.
In order to determine antioxidant capacity, 20 μL of the compound solutions (dissolved in 96% ethanol) was mixed with 180 μL of 0.3 mM ethanolic DPPH solution. The change in the absorbance was detected at 517 nm after 30 min of incubation. Results were expressed as percentage decrease in absorbance of the tested sample, compared to the sample containing the solvent + reaction mixture (blank with maximum concentration of the DPPH radical). L-ascorbic acid was used as a reference compound. Calculations were made using MS Excel, from the proportion where the change of absorbance in the vitamin C (vit. C) group was treated as 100%, according to Equation (1):(1) % activity of Vit.C=ΔAb×100/ΔAVit. C
Calculation of % Vit. C activity: ΔAb -the change in the absorbance of the test sample and ΔAVit. C is change in the absorbance of reference sample, or with vit. C.

Data set [3] deals with T1, human recombinant histamine H3R stably expressed in HEK-293 cells. Put plainly: [3H]Nα-methylhistamine hH3R displacement (radioligand depletion) binding assay. The settings on record: mean [95% confidence interval]. An excerpt: Unbound radioligand was removed by three washing steps with ice-cold water.
Data set [4] in a line: FRAP (ferric reducing antioxidant power) assay. The settings on record: 10 min incubation, vs sample containing solvent. On the procedure:
as §1, §2
A modified method of Benzie and Strain [38] was adopted for the FRAP assay. The stock solutions included 300 mM acetate buffer (3.1 g of C2H3NaO2 × 3H2O and 16 mL of C2H4O2), pH 3.6, 10 mM TPTZ (2,4,6-tripyridyl-s-triazine) solution in 40 mM HCl, and 20 mM FeCl3 × 6H2O solution. The working solution was prepared by mixing 10 parts of acetate buffer, 1 part of TPTZ solution, and 1 part of FeCl3 × 6H2O solution. A portion of 180 μL of the FRAP solution was mixed with 20 μL of the tested compound solution and incubated at room temperature for 10 min in the dark. Readings of the color product (ferrous tripyridyl triazine complex) were then taken at 593 nm against ethanol. Results are expressed as an increase in absorbance of the test sample compared to a sample containing the solvent. L-ascorbic acid was used as reference compound.

The target in the next data set is rH3R. The conditions noted are these: Figure 1; cited from earlier work.
[5] abbreviates: hH3R Ki [nM] x¯ [CI 95%], values obtained using 0.025% HCl in binding buffer.
Setting [6] is: hH3R Ki [nM] x¯ [CI 95%], [3H]Nα-methylhistamine displacement, HEK-293 membranes.
Where [7] appears, read: [3H]Nα-methylhistamine displacement, HEK-293 membranes, read-out: hH3R Ki [nM] x¯ [CI 95%].

T1 sequence (Q9Y5N1 whole entry): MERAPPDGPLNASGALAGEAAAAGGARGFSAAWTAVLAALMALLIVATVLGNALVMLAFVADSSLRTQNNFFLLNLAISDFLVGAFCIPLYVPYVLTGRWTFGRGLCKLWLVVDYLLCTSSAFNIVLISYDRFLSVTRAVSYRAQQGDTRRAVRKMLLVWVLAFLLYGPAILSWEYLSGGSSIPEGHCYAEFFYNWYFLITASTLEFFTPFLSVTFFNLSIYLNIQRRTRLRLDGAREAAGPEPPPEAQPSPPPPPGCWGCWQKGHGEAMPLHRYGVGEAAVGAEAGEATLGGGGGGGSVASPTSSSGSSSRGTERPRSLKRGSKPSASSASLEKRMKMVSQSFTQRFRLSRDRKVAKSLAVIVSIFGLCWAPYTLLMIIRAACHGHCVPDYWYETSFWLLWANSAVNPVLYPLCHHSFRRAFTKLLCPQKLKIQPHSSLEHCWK

For the compound `Cn1nc(N2CCC(OC(=O)N3CCN(C4CCC4)CC3)CC2)ccc1=O` [LML134], the pKi on hH3R is 7.92.

`CNCCc1cnc[nH]1` [[^3H]N^α-methylhistamine]: the pKd in [1] is 8.51.

As for `C#CCN(C)Cc1cc2cc(OCCCN3CCCCC3)ccc2n1C` [Contilisant], the pKi at hσ1R was 7.19; on rVAChT, 7.33; at hH3R it was 7.97; at rσ2R it was 6.49. Moreover, the pIC50 with hBuChE was 5.77.

On to `COc1cccc(N2CCN(CCCOc3ccc(C(=O)c4ccccc4)cc3)CC2)c1.O=C(O)C(=O)O` [Compound 16, (4-(3-(4-(3-Methoxyphenyl)piperazin-1-yl)propoxy)phenyl)(phenyl)methanone hydrogen oxalate], for which the melting point lay within 143.6 to 146.1 °C. The “DPPH Assay (λ = 517 nm) Absorbance Decrease in 10^−4 mol/L Concentration [%] Mean ± SEM” value in data set [2] was determined as 12.37 ± 1.31%. The “DPPH assay: % of ascorbic acid activity” value in data set [2] (compound 10^−4 mol/L vs ascorbic acid 10^−4 mol/L, calculated from Table 2) is 60.28% and 50–60%. In [3] (setting [5]), the Ki stood at 592 nM. Moreover, the “FRAP Assay (λ = 593 nm) Absorbance Increase in 10^−4 mol/L Concentration [%] Mean ± SEM” value in data set [4] was 32.91 ± 0.81%.

Compound `O=C(O)C(=O)O.O=C(c1ccc(F)cc1)c1ccc(OCCCN2CCN(C(=O)C3CC3)CC2)cc1` [Compound 9, (4-(3-(4-(Cyclopropanecarbonyl)piperazin-1-yl)propoxy)phenyl)(4-fluorophenyl)methanone hydrogen oxalate] yielded a melting point of 181.1 to 182.7 °C. The “DPPH Assay (λ = 517 nm) Absorbance Decrease in 10^−4 mol/L Concentration [%] Mean ± SEM” value in [2] is listed as 7.70 ± 0.41%. For the same compound, in data set [3] (setting [6]), the inhibition constant Ki stood at 1670 nM. Further, the “FRAP Assay (λ = 593 nm) Absorbance Increase in 10^−4 mol/L Concentration [%] Mean ± SEM” value in [4] was determined as 1.75 ± 0.22%.

In the case of `COc1cccc(N2CCN(CCCOc3ccc(C(=O)c4ccc(Cl)cc4)cc3)CC2)c1.O=C(O)C(=O)O` [Compound 17, (4-Chlorophenyl)(4-(3-(4-(3-methoxyphenyl)piperazin-1-yl)propoxy)phenyl)methanone hydrogen oxalate], the melting point fell in the range of 100.2 to 102.4 °C. In addition, the “DPPH Assay (λ = 517 nm) Absorbance Decrease in 10^−4 mol/L Concentration [%] Mean ± SEM” value in [2] is 4.88 ± 0.18%. For the same compound, the inhibition constant (Ki) in data set [3] (setting [5]) is 518 nM and ~500 nM. Moreover, the “FRAP Assay (λ = 593 nm) Absorbance Increase in 10^−4 mol/L Concentration [%] Mean ± SEM” value in data set [4] is 40.86 ± 0.98%.

`CC(=O)N1CCN(CCCOc2ccc(C(=O)c3ccc(F)cc3)cc2)CC1.O=C(O)C(=O)O` [Compound 6, 1-(4-(3-(4-(4-Fluorobenzoyl)phenoxy)propyl)piperazin-1-yl)ethan-1-one hydrogen oxalate]: the melting point lay within 171.3 to 173.1 °C. Further, in [2], the “DPPH Assay (λ = 517 nm) Absorbance Decrease in 10^−4 mol/L Concentration [%] Mean ± SEM” value is on record as 8.82 ± 0.12%. Moreover, the inhibition constant Ki in [3] (setting [6]) was found to be 1100 nM. Further, in data set [4], the “FRAP Assay (λ = 593 nm) Absorbance Increase in 10^−4 mol/L Concentration [%] Mean ± SEM” value worked out at 0.79 ± 0.39%.

Consider `O=C(c1ccc(Cl)cc1)c1ccc(OCCCN2CCN(c3ccc([N+](=O)[O-])cc3)CC2)cc1` [Compound 14, (4-Chlorophenyl)(4-(3-(4-(4-nitrophenyl)piperazin-1-yl)propoxy)phenyl)methanone], for which the melting point was 154.5 to 155.8 °C. Also, the “DPPH Assay (λ = 517 nm) Absorbance Decrease in 10^−4 mol/L Concentration [%] Mean ± SEM” value in [2] amounted to 6.31 ± 1.14%. Moreover, the Ki in [3] (setting [7]) was 622 nM. Further, the “FRAP Assay (λ = 593 nm) Absorbance Increase in 10^−4 mol/L Concentration [%] Mean ± SEM” value in data set [4] came to 0.22 ± 0.16%.

Consider `Clc1ccc(CCCOCCCN2CCCCC2)cc1` [Pitolisant, pitolisant], for which the pKi at rH3R was 7.77.

Consider `CC(=O)c1ccc(N2CCN(CCCOc3ccc(C(=O)c4ccccc4)cc3)CC2)cc1` [Compound 10, 1-(4-(4-(3-(4-Benzoylphenoxy)propyl)piperazin-1-yl)phenyl)ethan-1-one], for which the melting point was 148.4 to 151.4 °C. Also, in [2], the “DPPH Assay (λ = 517 nm) Absorbance Decrease in 10^−4 mol/L Concentration [%] Mean ± SEM” value is recorded as 2.44 ± 0.97%. Moreover, the Ki in data set [3] (setting [7]) stood at 633 nM. The “FRAP Assay (λ = 593 nm) Absorbance Increase in 10^−4 mol/L Concentration [%] Mean ± SEM” value in [4] amounted to 3.66 ± 0.59%.

The compound `CC(=O)c1ccc(N2CCN(CCCOc3ccc(C(=O)c4ccc(F)cc4)cc3)CC2)cc1` [Compound 12, 1-(4-(4-(3-(4-(4-Fluorobenzoyl)phenoxy)propyl)piperazin-1-yl)phenyl)ethan-1-one] displayed a melting point of 162 to 163.6 °C. Also, the “DPPH Assay (λ = 517 nm) Absorbance Decrease in 10^−4 mol/L Concentration [%] Mean ± SEM” value in data set [2] worked out at 4.42 ± 0.33%. Also, in data set [3] (setting [7]), the Ki is 1010 nM. Further, the “FRAP Assay (λ = 593 nm) Absorbance Increase in 10^−4 mol/L Concentration [%] Mean ± SEM” value in [4] is on record as 2.70 ± 1.15%.
